Read-outs that look alike come from different tables or passages of the source.

In assay [1] the test system is bloodstream-form trypanosome T. brucei brucei 427 strain. Kind of assay: Trypanosoma brucei brucei high-throughput screening assay (resazurin). The format is cell-based. As to the method: Example 105. Trypanosoma brucei brucei High-Throughput Screening Assay Procedure
All experiments were conducted with the bloodstream-form trypanosome T. brucei brucei 427 strain obtained from Seattle Biomedical Research Institute (Seattle, Wash.). Parasites were cultured in T-25 vented cap flasks and kept in humidified incubators at 37° C. and 5% CO2. The parasite culture media was complete HMI-9 medium containing 10% FBS, 10% Serum Plus medium and penicillin/streptomycin. To ensure log growth phase, trypanosomes were sub-cultured at appropriate dilutions every 2-3 days. Approximately 50 microliters of log phase cultures were diluted 1:10 in HMI-9 and 10 μL of the diluted culture was removed and counted using a hemocytometer to determine parasite concentration. Parasites were diluted by addition of an appropriate volume of HMI-9 to achieve a final parasite concentration of 2×10^5/mL. Compounds of the invention to be tested were serially diluted in DMSO and 0.5 μL added to 49.5 μL HMI-9 in triplicate 96-well plates using a Biomek NX liquid handler. Parasites from the diluted stock were added to each well (50 μL) using a Multidrop 384 dispenser to give a final concentration of 1.0×10^5/ml parasites in […] for DMSO. Trypanosomes were incubated with compounds for 72 hrs at 37° C. with 5% CO2. Resazurin (20 μL of 12.5 mg/ml stock) from Sigma-Aldrich was added to each well and plates were incubated for an additional 2-4 hrs. Assay plates were read using an EnVision plate reader at an excitation wavelength of 544 nm and emission of 590 nm. Triplicate data points were averaged to generate sigmoidal dose response curve and determine IC50 values using XLfit curve fitting software from IDBS (Guildford, UK).
In general terms: Alamar Blue is a resazurin reagent that responds to reducing activity.

Assay [2] deals with luciferase-expressing L. major parasites developing intracellularly inside RAW 264.7 macrophages. Kind of assay: Leishmania major intracellular amastigote assay in RAW 264.7 macrophages (luciferase). Format: cell-based. To be noted: RAW264.7, 96 hours, read-out: IC50: I Org. intracellular amastigote Growth L. major, 4 d. The procedure, abridged:
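RAW 264.7 macrophages infected overnight with luciferase-expressing L. major promastigotes, washed of extracellular parasites, then exposed to two-fold compound dilutions (final 0.5-10,000 ng/ml) for 96 h at 37° C, 5% CO2. Luciferin luminescence after 30 min; IC50 by sigmoidal variable-slope regression.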

Setting [3] is: bloodstream form, 72 hrs incubation, resazurin, read-out: IC50: I Org. Growth T. brucei brucei SBRI 427, 3 d.
The mark [4] stands for this setting: 72 h, read-out: IC50: I Org. Growth T. brucei brucei SBRI 427, 3 d [uM].

As for `O=C(Nc1ccc2c(c1)B(O)OC2)c1cn(-c2ccc(F)cc2)nn1` [Example 60, 1-(4-Fluorophenyl)-N-(1-hydroxy-1,3-dihydrobenzo[c][1,2]oxaborol-6-yl)-1H-1,2,3-triazole-4-carboxamide], the IC50 (in general, the concentration needed to halve the response being measured) in assay [1] (setting [3]) was in the range of 0.075 to 0.15 µM.

In the case of `O=C(Nc1ccc2c(c1)B(O)OC2)c1cn(-c2ccccn2)nn1` [Example 61, N-(1-hydroxy-1,3-dihydrobenzo[c][1,2]oxaborol-6-yl)-1-(pyridin-2-yl)-1H-1,2,3-triazole-4-carboxamide], the results for the IC50 in assay [1] (setting [3]) and in assay [2] were below 0.075 µM and 1100 to 9900 nM, respectively.

With `O=C(Nc1ccc2c(c1)B(O)OC2)c1nnn(-c2ccccc2)c1C(F)(F)F` [Example 68, N-(1-hydroxy-1,3-dihydrobenzo[c][1,2]oxaborol-6-yl)-1-phenyl-5-(trifluoromethyl)-1H-1,2,3-triazole-4-carboxamide], the IC50 in assay [1] (setting [4]) was 0.151 to 10 µM; in assay [2] it was at most 1000 nM.

For the compound `O=C(Nc1ccc2c(c1)B(O)OC2)c1nnn(-c2cccc(F)c2)c1C(F)(F)F` [Example 69, 1-(3-Fluorophenyl)-N-(1-hydroxy-1,3-dihydrobenzo[c][1,2]oxaborol-6-yl)-5-(trifluoromethyl)-1H-1,2,3-triazole-4-carboxamide], the IC50 in assay [2] is at most 1000 nM.

For `O=C(Nc1ccc2c(c1)B(O)OC2)c1nnn(-c2ccc(F)cc2)c1C(F)(F)F` [Example 70, 1-(4-Fluorophenyl)-N-(1-hydroxy-1,3-dihydrobenzo[c][1,2]oxaborol-6-yl)-5-(trifluoromethyl)-1H-1,2,3-triazole-4-carboxamide], in assay [2], the IC50 is at most 1000 nM.

As for `O=C(Nc1ccc2c(c1)B(O)OC2)c1nnn(-c2cccnc2)c1C(F)(F)F` [Example 71, N-(1-hydroxy-1,3-dihydrobenzo[c][1,2]oxaborol-6-yl)-1-(pyridin-3-yl)-5-(trifluoromethyl)-1H-1,2,3-triazole-4-carboxamide], in assay [2], the IC50 was at most 1000 nM.

`Cc1c(C(=O)Nc2ccc3c(c2)B(O)OC3)nnn1-c1ccccn1` [Example 84, N-(1-hydroxy-1,3-dihydrobenzo[c][1,2]oxaborol-6-yl)-5-methyl-1-(pyridin-2-yl)-1H-1,2,3-triazole-4-carboxamide]: the values for the IC50 in assay [1] (setting [3]) and in assay [2] were below 0.075 µM and 1100 to 9900 nM, respectively.

Turning to `Cc1c(C(=O)Nc2ccc3c(c2)B(O)OC3)nnn1-c1ccccc1` [Example 89, A-(1-hydroxy-1,3-dihydrobenzo[c][1,2]oxaborol-6-yl)-5-methyl-1-phenyl-1H-1,2,3-triazole-4-carboxamide], the results for the IC50 in assay [1] (setting [4]) and in assay [2] were below 0.075 µM and at most 1000 nM, respectively.

Turning to `COc1ccc(-n2nnc(C(=O)Nc3ccc4c(c3)B(O)OC4)c2C)cc1` [Example 91, N-(1-hydroxy-1,3-dihydrobenzo[c][1,2]oxaborol-6-yl)-1-(4-methoxyphenyl)-5-methyl-1H-1,2,3-triazole-4-carboxamide], the IC50 in assay [1] (setting [3]) is below 0.075 µM; in assay [2], 1100 to 9900 nM.

As for `Cc1c(C(=O)Nc2ccc3c(c2)B(O)OC3)nnn1-c1cccnc1` [Example 93, N-(1-hydroxy-1,3-dihydrobenzo[c][1,2]oxaborol-6-yl)-5-methyl-1-(pyridin-3-yl)-1H-1,2,3-triazole-4-carboxamide], the IC50 in assay [2] was 10000 to 50000 nM.

The values above are taken from patent US11691992B2 (Anacor Pharmaceuticals, Inc., priority 2017, dated 2023).
